Laboratory results from patent US8216973B2, “2-[(1H-pyrazole-4-ylmethyl)-sulfonyl]-oxazole-derivative, 2-[(1H-pyrazole-4-ylmethyl)-sulfanyl]-oxazole-derivatives, and chiral 2-[(1H-pyrazole-4-ymethyl)sulfinyl]oxazole derivatives, methods for the production thereof, and use thereof as herbicides and plant growth regulators” (Bayer Cropscience AG, priority 2008, dated 2012).

Assays:
[1] = test system: harmful plants such as Avena fatua, Stellaria media, Echinochloa crus galli, Lolium multiflorum, Setaria viridis, Amaranthus retroflexus, Veronica persica …; assay: Pre-emergence herbicidal effect, greenhouse pot test; format: in vivo, monocotyledonous or dicotyledonous weed plants; conditions: pre-emergence method, application rate of 0.32 kg and less of active substance per hectare, scored visually after about 3 weeks
Description: 1. Pre-Emergence Herbicidal Effect and Crop Plant Compatibility
Seeds of monocotyledonous or dicotyledonous weed plants or crop plants are placed in sandy loam in wood-fiber pots and covered with soil. The compounds according to the invention, formulated in the form of wettable powders (WP), are then applied as aqueous suspension at a water application rate of 600 l/ha (converted) with the addition of 0.2% of wetting agent to the surface of the covering soil.
After the treatment, the pots are placed in a greenhouse and kept under good growth conditions for the test plants. After about 3 weeks, the effect of the preparations is scored visually in comparison with untreated controls (herbicidal effect in percent (%): 100% activity=the plants have died, 0% activity=like control plants).

[2] = test system: harmful plants such as Echinochloa crus galli, Lolium multiflorum, and Setaria viridis; assay: Post-emergence herbicidal effect, greenhouse pot test; format: in vivo, monocotyledonous and dicotyledonous weed plants; conditions: post-emergence method, application rate of 0.32 kg and less of active substance per hectare, rated visually after about 3 weeks
Description: 2. Post-Emergence Herbicidal Effect and Crop Plant Compatibility
Seeds of monocotyledonous and dicotyledonous weed and crop plants are placed in sandy loam in wood-fiber pots, covered with soil and cultivated in a greenhouse under good growth conditions. 2 to 3 weeks after sowing, the test plants are treated at the one-leaf stage. The compounds according to the invention, formulated in the form of wettable powders (WP), are then sprayed as aqueous suspension at a water application rate of 600 l/ha (converted) with the addition of 0.2% of wetting agent onto the green parts of the plants. After the test plants have been kept in the greenhouse under optimum growth conditions for about 3 weeks, the activity of the preparations is rated visually in comparison to untreated controls (herbicidal activity in percent (%): 100% activity=the plants have died, 0% activity=like control plants).

Compound | herbicidal activity against harmful plants [1] | herbicidal activity against harmful plants [2]
Cn1nc(C(F)(F)F)c(C[S+]([O-])c2ncco2)c1OC(F)F (racemic) [compound 50, 2-({[5-(Difluoromethoxy)-1-methyl-3-(trifluoromethyl)-1H-pyrazol-4-yl]methyl}sulfinyl)-1,3-oxazole] | very good herbicidal activity | very good herbicidal activity
Cn1nc(C(F)(F)F)c(C[S+]([O-])c2ncco2)c1Cl (centres unmarked) [Compound No. 35, 2-({[5-(Chloro)-1-methyl-3-(trifluoromethyl)-1H-pyrazol-4-yl]methyl}sulfinyl)-1,3-oxazole] | very good herbicidal activity | very good herbicidal activity
Cn1nc(C(F)(F)F)c(C[S+]([O-])c2ncco2)c1C(F)(F)F (centres unmarked) [Compound No. 230, 2-({[1-Methyl-3,5-bis(trifluoromethyl)-1H-pyrazol-4-yl]methyl}sulfinyl)-1,3-oxazole] | very good herbicidal activity | very good herbicidal activity
Cn1nc(C(F)(F)F)c(C[S+]([O-])c2ncc(Cl)o2)c1OC(F)F (centres unmarked) [Compound No. 542, 5-Chloro-2-({[5-(difluoromethoxy)-1-methyl-3-(trifluoromethyl)-1H-pyrazol-4-yl]methyl}sulfinyl)-1,3-oxazole] | very good herbicidal activity | very good herbicidal activity
Cn1nc(C(F)(F)F)c(C[S+]([O-])c2ncc(Br)o2)c1OC(F)F (centres unmarked) [Compound No. 788, 5-Bromo-2-({[5-(difluoromethoxy)-1-methyl-3-(trifluoromethyl)-1H-pyrazol-4-yl]methyl}sulfinyl)-1,3-oxazole] | very good herbicidal activity | 
Cn1nc(C(F)(F)F)c(CS(=O)(=O)c2ncc(Br)o2)c1OC(F)F [Compound No. 789, 5-Bromo-2-({[5-(difluoromethoxy)-1-methyl-3-(trifluoromethyl)-1H-pyrazol-4-yl]methyl}sulfonyl)-1,3-oxazole] | very good herbicidal activity | 
Cn1nc(C(F)(F)F)c(C[S+]([O-])c2ncc(I)o2)c1OC(F)F (centres unmarked) [Compound No. 1034, 5-Iodo-2-({[5-(difluoromethoxy)-1-methyl-3-(trifluoromethyl)-1H-pyrazol-4-yl]methyl}sulfinyl)-1,3-oxazole] | very good herbicidal activity | 
Cn1nc(C(F)(F)F)c(C[S@+]([O-])c2ncc(Cl)o2)c1OC(F)F [Compound No. 2449] | very good herbicidal activity | 
Cn1nc(C(F)(F)F)c(C[S@+]([O-])c2ncc(Br)o2)c1OC(F)F [Compound No. 2531] | very good herbicidal activity | 
Cn1nc(C(F)(F)F)c(CS(=O)(=O)c2ncco2)c1OC(F)F [compound 51, 2-({[5-(Difluoromethoxy)-1-methyl-3-(trifluoromethyl)-1H-pyrazol-4-yl]methyl}sulfonyl)-1,3-oxazole] | very good herbicidal activity | very good herbicidal activity
Cn1nc(C(F)(F)F)c(C[S@+]([O-])c2ncco2)c1OC(F)F [compound 2285, 2-[(S)-{[5-(Difluoromethoxy)-1-methyl-3-(trifluoromethyl)-1H-pyrazol-4-yl]methyl}sulfinyl]-1,3-oxazole] | very good herbicidal activity | very good herbicidal activity
